Values joined by “and” are separate entries in the source; they are usually repeats but may differ in a detail not shown here. Equal entries are not always repeated.
How the values were obtained:
Assay type in all cases: functional, Homo sapiens
Design in all cases: dose or concentration left out as unconfirmed
Colon cancer organoid [1] = assay: Image-based profiling of donated chemical probes and chemogenomic kinase set in O09 CRC organoid. Image analysis is performed on the sum area metric, and the data were normalized to the DMSO control. After imaging the organoid viability is measured using the OneGloEX Luciferase Assay System. The normalized viability data and sum area are reported.
Colon cancer organoid [2] = assay: Image-based profiling of donated chemical probes and chemogenomic kinase set in O06 CRC organoid. Image analysis is performed on the sum area metric, and the data were normalized to the DMSO control. After imaging the organoid viability is measured using the OneGloEX Luciferase Assay System. The normalized viability data and sum area are reported.
Colon cancer organoid [3] = assay: Image-based profiling of donated chemical probes and chemogenomic kinase set in O21 CRC organoid. Image analysis is performed on the sum area metric, and the data were normalized to the DMSO control. After imaging the organoid viability is measured using the OneGloEX Luciferase Assay System. The normalized viability data and sum area are reported.

Compound: O=C(Nc1cnc(Oc2ccc(F)cc2)nc1)N1CCc2ncccc2[C@@H]1c1ccc(F)cc1 [BAY-899]
- Cell Viability (Colon cancer organoid [1]; Replication number 1): 90.6617% and 101.288%
- Cell Viability (Colon cancer organoid [1]; Replication number 2): 105.766% and 101.705%
- Cell Viability (Colon cancer organoid [2]; Replication number 1): 95.5159% and 118.785%
- Cell Viability (Colon cancer organoid [2]; Replication number 2): 100.58% and 108.361%
- Cell Viability (Colon cancer organoid [3]; Replication number 1): 121.151% and 99.8545%
- Cell Viability (Colon cancer organoid [3]; Replication number 2): 98.3369% and 80.5574%

Compound: C[C@H](c1ccnc(Nc2nc3ccc(-c4cc(N(C)C)ncn4)cc3[nH]2)c1)N1CCN(C(=O)CC(F)(F)F)CC1 [BAY-985]
- Cell Viability (Colon cancer organoid [1]; Replication number 1): 71.2214% and 105.601%
- Cell Viability (Colon cancer organoid [1]; Replication number 2): 101.014% and 89.9598%
- Cell Viability (Colon cancer organoid [2]; Replication number 1): 90.8191% and 114.52%
- Cell Viability (Colon cancer organoid [2]; Replication number 2): 122.693% and 118.685%
- Cell Viability (Colon cancer organoid [3]; Replication number 1): 79.4083% and 115.847%
- Cell Viability (Colon cancer organoid [3]; Replication number 2): 85.0487% and 108.163%

Compound: Cc1noc([C@H]2C[C@@H](c3ccc(C(F)(F)F)cc3)CN(C(=O)N3CCS(=O)(=O)C3)C2)n1 [BAY-448]
- Cell Viability (Colon cancer organoid [1]; Replication number 1): 144.748% and 117.786%
- Cell Viability (Colon cancer organoid [1]; Replication number 2): 135.729% and 111.574%
- Cell Viability (Colon cancer organoid [2]; Replication number 1): 117.281% and 106.792%
- Cell Viability (Colon cancer organoid [2]; Replication number 2): 86.8627% and 94.2849%
- Cell Viability (Colon cancer organoid [3]; Replication number 1): 88.3285% and 80.3363%
- Cell Viability (Colon cancer organoid [3]; Replication number 2): 88.286% and 95.9184%

Compound: Cc1cc(-n2nc(Cc3cc(F)cc(C(F)(F)F)c3)nc2C)ccc1C(N)=O [TP-024]
- Cell Viability (Colon cancer organoid [1]; Replication number 1): 194.223% and 140.244%
- Cell Viability (Colon cancer organoid [1]; Replication number 2): 90.9356% and 75.9401%
- Cell Viability (Colon cancer organoid [2]; Replication number 1): 119.634% and 111.944%
- Cell Viability (Colon cancer organoid [2]; Replication number 2): 93.5275% and 86.4673%
- Cell Viability (Colon cancer organoid [3]; Replication number 1): 86.6903% and 89.6507%
- Cell Viability (Colon cancer organoid [3]; Replication number 2): 83.205% and 88.2653%

Compound: CC(C)Oc1ccc(-c2nn([C@@H](C)c3oc4ccc(F)cc4c(=O)c3-c3cccc(F)c3)c3ncnc(N)c23)cc1F [UMBRALISIB]
- Cell Viability (Colon cancer organoid [1]; Replication number 1): 196.172% and 129.157%
- Cell Viability (Colon cancer organoid [1]; Replication number 2): 74.9501% and 109.33%
- Cell Viability (Colon cancer organoid [2]; Replication number 1): 88.4125% and 133.76%
- Cell Viability (Colon cancer organoid [2]; Replication number 2): 91.2943% and 112.494%
- Cell Viability (Colon cancer organoid [3]; Replication number 1): 111.232% and 144.39%
- Cell Viability (Colon cancer organoid [3]; Replication number 2): 124.887% and 154.3%

Compound: N#CC1(c2ccccn2)CCN(Cc2cc(C(=O)N3CCCC3)c(=O)n3ccccc23)CC1 [MSD-M1PAM-NC]
- Cell Viability (Colon cancer organoid [1]; Replication number 1): 69.2847% and 91.5343%
- Cell Viability (Colon cancer organoid [1]; Replication number 2): 101.66% and 96.3521%
- Cell Viability (Colon cancer organoid [2]; Replication number 1): 114.688% and 98.8664%
- Cell Viability (Colon cancer organoid [2]; Replication number 2): 108.691% and 97.5493%
- Cell Viability (Colon cancer organoid [3]; Replication number 1): 100.616% and 90.5784%
- Cell Viability (Colon cancer organoid [3]; Replication number 2): 99.0735% and 86.6757%

Compound: CC(C)NC(=O)N1CC[C@H](NC2=Nc3cc(F)ccc3N(CC(F)F)c3ccc(Cl)cc32)C1
- Cell Viability (Colon cancer organoid [1]; Replication number 1): 65.8757% and 85.8718%
- Cell Viability (Colon cancer organoid [1]; Replication number 2): 77.8958% and 74.4882%
- Cell Viability (Colon cancer organoid [2]; Replication number 1): 76.3577% and 106.595%
- Cell Viability (Colon cancer organoid [2]; Replication number 2): 67.4805% and 91.0899%
- Cell Viability (Colon cancer organoid [3]; Replication number 1): 89.5308% and 79.3405%
- Cell Viability (Colon cancer organoid [3]; Replication number 2): 112.883% and 89.5415%

Compound: CC(=O)c1cc(-c2ccccc2OCC2CC2)c2ncccn12
- Cell Viability (Colon cancer organoid [1]; Replication number 1): 135.678% and 108.037%
- Cell Viability (Colon cancer organoid [1]; Replication number 2): 170.672% and 99.2081%
- Cell Viability (Colon cancer organoid [2]; Replication number 1): 193.281% and 129.503%
- Cell Viability (Colon cancer organoid [2]; Replication number 2): 159.696% and 98.6989%
- Cell Viability (Colon cancer organoid [3]; Replication number 1): 119.426% and 104.637%
- Cell Viability (Colon cancer organoid [3]; Replication number 2): 103.612% and 93.9737%

Compound: CN(C)C(=O)c1ccc(-c2cc(C(=O)N(C)C3CCCC3)no2)cc1O
- Cell Viability (Colon cancer organoid [1]; Replication number 1): 101.196% and 104.096%
- Cell Viability (Colon cancer organoid [1]; Replication number 2): 94.5921% and 98.6379%
- Cell Viability (Colon cancer organoid [2]; Replication number 1): 136.959% and 113.074%
- Cell Viability (Colon cancer organoid [2]; Replication number 2): 141.385% and 104.673%
- Cell Viability (Colon cancer organoid [3]; Replication number 1): 136.03% and 124.037%
- Cell Viability (Colon cancer organoid [3]; Replication number 2): 110.351% and 113.842%

Compound: CN(C)C(=O)Cn1cc(-c2nc(C3(c4ccc(-c5cnc(N)nc5)cc4)CC3)no2)cn1 [BI 0153]
- Cell Viability (Colon cancer organoid [1]; Replication number 1): 152.465% and 95.0889%
- Cell Viability (Colon cancer organoid [1]; Replication number 2): 176.713% and 106.608%
- Cell Viability (Colon cancer organoid [2]; Replication number 1): 106.576% and 110.07%
- Cell Viability (Colon cancer organoid [2]; Replication number 2): 80.0994% and 77.4652%
- Cell Viability (Colon cancer organoid [3]; Replication number 1): 115.747% and 91.3972%
- Cell Viability (Colon cancer organoid [3]; Replication number 2): 95.3195% and 84.6939%

Compound: CN(C)C(=O)Cn1cc(-c2ccc(-c3nnc4ccccn34)cc2)cn1
- Cell Viability (Colon cancer organoid [1]; Replication number 1): 166.343% and 115.942%
- Cell Viability (Colon cancer organoid [1]; Replication number 2): 81.4375% and 98.5321%
- Cell Viability (Colon cancer organoid [2]; Replication number 1): 116.057% and 113.952%
- Cell Viability (Colon cancer organoid [2]; Replication number 2): 85.0591% and 113.728%
- Cell Viability (Colon cancer organoid [3]; Replication number 1): 108.728% and 107.596%
- Cell Viability (Colon cancer organoid [3]; Replication number 2): 93.8353% and 96.1497%

Compound: C[C@@]1(Cc2ccc(C#N)cc2)C(=O)N(c2cc(Cl)cc(Cl)c2)c2ncc(C(=O)NC3(c4nc(C5CCC5)no4)CC3)n21 [BI 9446]
- Cell Viability (Colon cancer organoid [1]; Replication number 1): 73.271% and 85.2933%
- Cell Viability (Colon cancer organoid [1]; Replication number 2): 87.2778% and 108.945%
- Cell Viability (Colon cancer organoid [2]; Replication number 1): 120.452% and 119.438%
- Cell Viability (Colon cancer organoid [2]; Replication number 2): 141.276% and 120.817%
- Cell Viability (Colon cancer organoid [3]; Replication number 1): 115.902% and 114.683%
- Cell Viability (Colon cancer organoid [3]; Replication number 2): 106.853% and 94.898%

Compound: O=C(NNS(=O)(=O)c1ccccc1)c1cc(-c2ccnnc2)ccc1F [WM-2474]
- Cell Viability (Colon cancer organoid [1]; Replication number 1): 112.004% and 108.416%
- Cell Viability (Colon cancer organoid [1]; Replication number 2): 87.165% and 94.3695%
- Cell Viability (Colon cancer organoid [2]; Replication number 1): 103.665% and 117.571%
- Cell Viability (Colon cancer organoid [2]; Replication number 2): 96.3756% and 98.5103%
- Cell Viability (Colon cancer organoid [3]; Replication number 1): 113.818% and 97.6719%
- Cell Viability (Colon cancer organoid [3]; Replication number 2): 86.2106% and 79.5377%

Compound: COc1ccc2c(O[C@@H]3C[C@H]4C(=O)N[C@]5(C(=O)O)CC5/C=C\CCCCC[C@H](NC(=O)OC5CCCC5)C(=O)N4C3)cc(-c3csc(NC(=O)C(C)C)n3)nc2c1C (stereo partly specified) [BI 1230]
- Cell Viability (Colon cancer organoid [1]; Replication number 1): 106.493% and 128.298%
- Cell Viability (Colon cancer organoid [1]; Replication number 2): 89.1059% and 82.6579%
- Cell Viability (Colon cancer organoid [2]; Replication number 1): 145.195% and 153.864%
- Cell Viability (Colon cancer organoid [2]; Replication number 2): 115.735% and 122.476%
- Cell Viability (Colon cancer organoid [3]; Replication number 1): 91.3171% and 103.622%
- Cell Viability (Colon cancer organoid [3]; Replication number 2): 114.827% and 120.408%

Compound: NS(=O)(=O)c1cc(NC(=O)C2(c3ccccc3Cl)CC2)ccc1Oc1cccc(Cl)c1 [BAY-207]
- Cell Viability (Colon cancer organoid [1]; Replication number 1): 172.466% and 128.537%
- Cell Viability (Colon cancer organoid [1]; Replication number 2): 110.661% and 134.648%
- Cell Viability (Colon cancer organoid [2]; Replication number 1): 85.045% and 103.044%
- Cell Viability (Colon cancer organoid [2]; Replication number 2): 47.3713% and 82.6769%
- Cell Viability (Colon cancer organoid [3]; Replication number 1): 111.619% and 128.655%
- Cell Viability (Colon cancer organoid [3]; Replication number 2): 96.7656% and 94.898%

Compound: Cc1cnc(-c2cc(Cl)ccc2F)cc1-n1c(=O)n(CC(N)=O)c2cnccc21 [TP-008]
- Cell Viability (Colon cancer organoid [1]; Replication number 1): 46.9462% and 85.5321%
- Cell Viability (Colon cancer organoid [1]; Replication number 2): 76.2638% and 97.3434%
- Cell Viability (Colon cancer organoid [2]; Replication number 1): 69.5011% and 111.741%
- Cell Viability (Colon cancer organoid [2]; Replication number 2): 79.5252% and 108.842%
- Cell Viability (Colon cancer organoid [3]; Replication number 1): 94.8191% and 94.398%
- Cell Viability (Colon cancer organoid [3]; Replication number 2): 86.5351% and 93.3039%

Reference: ChEMBL document CHEMBL5724558, “Image-based profiling of drug vulnerabilities in CRC organoids” (2024)
